What was measured:
BFXwt = experiment: Dependence of infection on endosome acidification (IE1-positive ARPE-19 cells), BFXwt; assay type: cell-based, HCMV; details: 50 mM NH4Cl or 40 nM BFA, 0.01 pfu/cell
Method: (§1) FIGS. 3A-3B. Effects of inhibitors of endosome acidification and virion source on HCMV entry into ARPE-19 cells. Experiments were performed in triplicate, and the number of positive cells in drug-treated relative to untreated cultures is reported. FIG. 3A: Cells were pretreated with NH4Cl or BFA for 1 h, inoculated with epiBADrUL131 or fibroBADrUL131 (1 pfu/cell) and stained for IE 1 16 h later. FIG. 3B: Cells were pretreated with 50 mM NH4Cl or 40 nM BFA for 1 h, and then inoculated with BADrUL131 (0.1 pfu/cell) or FIXwt (0.01 pfu/cell) produced in the indicated cell types and stained for IE1 16 h later.
(§2) ARPE-19 cells were pretreated with NH4Cl or Bafilomycin A1 (BFA) (Sigma) for 1 h at 37° C., followed by infection in the continued presence of the inhibitor. 16 h later, cultures were fixed in 2% paraformaldehyde and permeabilized with 0.1% Triton X-100. IE1 was identified by immunofluorescence using monoclonal antibody IB12 (21) plus Alexa 546-conjugated secondary antibody and nuclei were stained with DAPI. Inhibition was calculated as the percentage of IE1-expressing drug-treated relative to untreated cells.
The effect of endosomal pH on entry of the BFXwt clinical isolate into ARPE-19 cells was also assayed (FIG. 3B. right panel).

BADrUL131 = experiment: Dependence of infection on endosome acidification (IE1-positive ARPE-19 cells), BADrUL131; assay type: cell-based, HCMV; details: 1 h pretreatment, 1 pfu/cell, IE1 16 h later
Method: as §1, §2
Many viruses that enter cells by endocytosis (1, 4, 10) require acidification of endosomes for the virion envelope to fuse with the endosomal membrane and release the capsid into the cytoplasm. NH4Cl. which buffers endosomal pH, and bafilomycin A1 (BFA), which blocks the endosomal ATPase proton pump, were tested for their effect on infection of ARPE-19 cells. After pretreatment with either agent, cells were infected and cultured in drug containing medium for a further 16 h. Successful infections were scored by assaying for IE1-positive cells.

Row | SMILES | effect on number of IE1-positive ARPE-19 cells, epithelial cell-derived BFXwt (BFXwt) | effect on number of IE1-positive ARPE-19 cells, fibroblast-generated BFXwt (BFXwt) | effect of pretreatment on epiBADrUL131 infection (IE1-positive cells) (BADrUL131) | effect of pretreatment on fibroBADrUL131 infection (IE1 expression) (BADrUL131)
1 | CO/C1=C\C(C)=C\[C@@H](C)[C@@H](O)[C@@H](C)C/C(C)=C/C=C/[C@H](OC)[C@@H]([C@@H](C)[C@@H](O)[C@H](C)[C@@]2(O)C[C@@H](O)[C@H](C)[C@@H](C(C)C)O2)OC1=O [BFA, Bafilomycin A1] | only a slight inhibition | significantly reduced | only a modest effect | inhibited IE1 expression
2 | Cl.N [NH4Cl] | only a slight inhibition | significantly reduced | only a modest effect | inhibited IE1 expression
